Measured values reported in patent US20160375006A1, “USES OF PARALOG-SELECTIVE INHIBITORS OF GSK3 KINASES” (priority 2012, published 2016).

Columns and labels:
CHK1 = CHK1 (Homo sapiens, UniProt O14757)
Protocol: (§1) This was completed utilizing one of two assays depending on the kinase being examined.
(§2) A solution of IMAP binding reagent (IMAP Screening Express kit; Molecular Devices) (60 μL) was added to each well and incubated for 30 minutes.
(§3) A solution of termination buffer (QuickScout Screening assist MSA; Carna Biosciences) (60 μL) was added to each well. The entire reaction mixture was then applied to a LabChip3000 system (Caliper Life Science) and the product and substrate peptide peaks were separated and quantified.
(§4) The assay utilized was identical to that of the single point inhibitory activity determination (MSA) but run in dose response. […] A solution of termination buffer (QuickScout Screening assist MSA; Carna Biosciences) (60 μL) was added to each well. The entire reaction mixture was then applied to a LabChip3000 system (Caliper Life Science) and the product and substrate peptide peaks were separated and quantified.

Erk5 = target: T1, Erk5 (Homo sapiens, UniProt Q13164); assay: Carna kinase panel; type: biochemical
T1 construct: purchased Carna Biosciences
Protocol: as §1, §2, §3

MAPKAPK3 = MAPKAPK3 (Homo sapiens, UniProt Q16644)
Protocol: as §1, §2, §3, §4

IKKε = IKKε (Homo sapiens, UniProt Q14164)
Protocol: as §1, §2, §3, §4

MAP2K7_Cascade = MAP2K7_Cascade (Homo sapiens, UniProt O14733)
MAP2K7_Cascade, sequence (O14733 whole entry): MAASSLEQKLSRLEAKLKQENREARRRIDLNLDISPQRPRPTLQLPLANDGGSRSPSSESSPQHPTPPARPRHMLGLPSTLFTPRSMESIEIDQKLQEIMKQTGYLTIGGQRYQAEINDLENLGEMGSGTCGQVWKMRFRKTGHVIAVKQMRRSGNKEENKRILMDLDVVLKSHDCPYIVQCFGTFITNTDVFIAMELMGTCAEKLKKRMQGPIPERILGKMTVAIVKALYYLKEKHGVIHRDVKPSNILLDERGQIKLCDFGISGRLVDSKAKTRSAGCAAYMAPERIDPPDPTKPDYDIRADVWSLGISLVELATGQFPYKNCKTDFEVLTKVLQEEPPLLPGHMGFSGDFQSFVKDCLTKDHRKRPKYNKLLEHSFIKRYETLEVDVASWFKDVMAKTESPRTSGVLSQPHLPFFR
Protocol: as §1, §2, §3, §4

LCK = LCK (Homo sapiens, UniProt P06239)
Protocol: as §1, §2, §3, §4

ALK(L1196M) = ALK(L1196M) (Homo sapiens, UniProt Q9UM73, L1196M)
Protocol: as §1, §2, §3, §4

PAK5 = PAK5 (Homo sapiens, UniProt Q9P286)
PAK5, sequence (Q9P286 whole entry): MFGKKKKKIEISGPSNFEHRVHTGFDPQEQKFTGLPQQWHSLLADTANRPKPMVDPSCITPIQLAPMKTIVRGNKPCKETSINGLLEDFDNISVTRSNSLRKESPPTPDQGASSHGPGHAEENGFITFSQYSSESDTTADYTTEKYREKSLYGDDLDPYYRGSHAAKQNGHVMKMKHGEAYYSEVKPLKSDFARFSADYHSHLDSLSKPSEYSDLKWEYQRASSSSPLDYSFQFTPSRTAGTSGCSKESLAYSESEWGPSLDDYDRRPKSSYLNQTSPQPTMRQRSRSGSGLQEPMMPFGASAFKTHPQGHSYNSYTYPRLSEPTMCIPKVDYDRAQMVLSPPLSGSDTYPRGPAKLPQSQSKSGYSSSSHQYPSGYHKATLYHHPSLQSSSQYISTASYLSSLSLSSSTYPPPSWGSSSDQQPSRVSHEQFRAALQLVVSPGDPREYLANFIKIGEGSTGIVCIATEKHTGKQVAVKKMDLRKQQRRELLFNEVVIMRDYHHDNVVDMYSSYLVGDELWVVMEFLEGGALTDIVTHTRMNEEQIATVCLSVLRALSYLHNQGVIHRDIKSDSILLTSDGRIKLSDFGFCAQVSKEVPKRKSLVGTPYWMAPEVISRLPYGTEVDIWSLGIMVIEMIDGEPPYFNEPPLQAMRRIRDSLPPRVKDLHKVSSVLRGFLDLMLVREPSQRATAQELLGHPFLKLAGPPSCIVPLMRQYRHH
Protocol: as §1, §2, §3

p38α = p38α (Homo sapiens, UniProt Q16539)
Protocol: as §1, §2, §3, §4

NEK1 = NEK1 (Homo sapiens, UniProt Q96PY6)
Protocol: as §1, §2, §3

EGFR(L858R) = EGFR(L858R) (Homo sapiens, UniProt P00533, L858R)
Protocol: as §1, §2, §3, §4

PKCη = PKCη (Homo sapiens, UniProt P24723)
Protocol: as §1, §2, §3, §4

FGFR3 = FGFR3 (Homo sapiens, UniProt P22607)
Protocol: as §2, §3, §4

EPHA4 = EPHA4 (Homo sapiens, UniProt P54764)
Protocol: as §1, §2, §3, §4

CK2α2/β = CK2α2/β (Homo sapiens, UniProt P19784)
Protocol: as §1, §2, §3, §4

TRKC = TRKC (Homo sapiens, UniProt Q16288)
Protocol: as §1, §2, §3, §4

JNK1 = JNK1 (Homo sapiens, UniProt P45983)
JNK1, sequence (P45983 whole entry): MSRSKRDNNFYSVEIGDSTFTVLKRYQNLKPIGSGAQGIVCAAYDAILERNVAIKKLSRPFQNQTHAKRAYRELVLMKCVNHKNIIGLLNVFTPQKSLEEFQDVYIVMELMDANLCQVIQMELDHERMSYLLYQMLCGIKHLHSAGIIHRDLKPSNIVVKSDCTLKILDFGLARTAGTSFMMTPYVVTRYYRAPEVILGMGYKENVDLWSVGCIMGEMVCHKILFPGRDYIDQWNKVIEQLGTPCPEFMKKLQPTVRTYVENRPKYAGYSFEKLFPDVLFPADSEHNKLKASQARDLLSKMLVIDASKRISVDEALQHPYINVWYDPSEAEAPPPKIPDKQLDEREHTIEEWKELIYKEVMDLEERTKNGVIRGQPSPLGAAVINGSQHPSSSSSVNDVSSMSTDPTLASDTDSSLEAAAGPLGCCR
Protocol: as §1, §2, §3, §4

FES = FES (Homo sapiens, UniProt P07332)
Protocol: as §1, §2, §3, §4

ACK = ACK (Homo sapiens, UniProt Q07912)
Protocol: as §1, §2, §3, §4

CaMK2α = CaMK2α (Homo sapiens, UniProt Q9UQM7)
Protocol: as §1, §2, §3, §4

TAOK2 = TAOK2 (Homo sapiens, UniProt Q9UL54)
Protocol: as §1, §2, §3

CK2α1/β = CK2α1/β (Homo sapiens, UniProt P68400)
Protocol: as §1, §2, §3, §4

DCAMKL2 = DCAMKL2 (Homo sapiens, UniProt Q8N568)
Protocol: as §1, §2, §3, §4

RSK1 = RSK1 (Homo sapiens, UniProt Q15418)
RSK1, sequence (Q15418 whole entry): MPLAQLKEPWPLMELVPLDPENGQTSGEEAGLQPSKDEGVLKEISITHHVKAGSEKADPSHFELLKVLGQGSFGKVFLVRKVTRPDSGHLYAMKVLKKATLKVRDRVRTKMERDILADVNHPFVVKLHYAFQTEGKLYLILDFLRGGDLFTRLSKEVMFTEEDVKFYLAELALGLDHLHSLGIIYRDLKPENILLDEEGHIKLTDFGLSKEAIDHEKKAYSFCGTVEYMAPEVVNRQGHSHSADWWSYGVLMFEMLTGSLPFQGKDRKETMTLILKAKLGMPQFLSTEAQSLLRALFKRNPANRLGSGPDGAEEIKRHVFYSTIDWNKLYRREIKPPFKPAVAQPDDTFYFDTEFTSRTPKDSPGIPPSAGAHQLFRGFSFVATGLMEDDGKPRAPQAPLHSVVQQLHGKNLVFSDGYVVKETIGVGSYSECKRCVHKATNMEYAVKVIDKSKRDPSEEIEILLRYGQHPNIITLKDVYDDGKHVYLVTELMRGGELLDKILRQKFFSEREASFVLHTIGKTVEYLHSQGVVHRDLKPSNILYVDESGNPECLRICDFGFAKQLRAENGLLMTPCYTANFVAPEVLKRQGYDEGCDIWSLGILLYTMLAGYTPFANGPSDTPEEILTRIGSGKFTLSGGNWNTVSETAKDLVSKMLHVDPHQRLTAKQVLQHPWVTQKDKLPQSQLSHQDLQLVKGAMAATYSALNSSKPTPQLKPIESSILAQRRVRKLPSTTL
Protocol: as §1, §2, §3

BRSK1 = BRSK1 (Homo sapiens, UniProt Q8TDC3)
Protocol: as §1, §2, §3, §4

CaMK1δ = CaMK1δ (Homo sapiens, UniProt Q8IU85)
Protocol: as §1, §2, §3, §4

MAPKAPK2 = MAPKAPK2 (Homo sapiens, UniProt P49137)
Protocol: as §1, §2, §3, §4

PIM3 = PIM3 (Homo sapiens, UniProt Q86V86)
Protocol: as §1, §2, §3

KIT(V560G) = KIT(V560G) (Homo sapiens, UniProt P10721, V560G)
KIT(V560G), sequence (P10721 26-976 V560G): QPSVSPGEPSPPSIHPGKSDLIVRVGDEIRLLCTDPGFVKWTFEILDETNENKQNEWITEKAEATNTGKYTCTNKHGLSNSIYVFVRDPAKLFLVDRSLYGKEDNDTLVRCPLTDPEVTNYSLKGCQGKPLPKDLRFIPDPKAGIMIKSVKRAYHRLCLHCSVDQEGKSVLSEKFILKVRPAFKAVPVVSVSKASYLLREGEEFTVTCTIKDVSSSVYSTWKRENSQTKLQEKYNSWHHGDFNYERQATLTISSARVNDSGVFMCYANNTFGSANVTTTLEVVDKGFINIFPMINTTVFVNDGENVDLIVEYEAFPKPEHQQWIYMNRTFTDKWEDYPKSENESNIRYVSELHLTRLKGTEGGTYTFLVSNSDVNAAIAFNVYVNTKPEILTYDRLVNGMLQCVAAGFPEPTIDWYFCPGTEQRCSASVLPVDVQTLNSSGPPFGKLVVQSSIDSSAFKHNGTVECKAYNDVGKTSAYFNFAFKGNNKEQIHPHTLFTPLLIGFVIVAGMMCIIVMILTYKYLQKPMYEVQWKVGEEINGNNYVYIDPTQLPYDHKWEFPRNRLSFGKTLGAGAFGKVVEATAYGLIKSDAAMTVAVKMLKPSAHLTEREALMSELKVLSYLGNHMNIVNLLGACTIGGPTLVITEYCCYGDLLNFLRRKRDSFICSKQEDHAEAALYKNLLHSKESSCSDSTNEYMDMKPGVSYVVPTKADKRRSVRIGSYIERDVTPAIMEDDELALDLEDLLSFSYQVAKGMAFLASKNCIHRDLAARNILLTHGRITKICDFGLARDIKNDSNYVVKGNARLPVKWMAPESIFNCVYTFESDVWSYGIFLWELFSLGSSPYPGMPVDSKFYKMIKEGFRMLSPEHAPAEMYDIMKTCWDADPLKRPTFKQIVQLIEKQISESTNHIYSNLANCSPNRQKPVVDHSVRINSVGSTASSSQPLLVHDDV
Protocol: as §1, §2, §3, §4

p70S6K = p70S6K (Homo sapiens, UniProt P23443)
Protocol: as §1, §2, §3, §4

HIPK2 = HIPK2 (Homo sapiens, UniProt Q9H2X6)
Protocol: as §1, §2, §3, §4

SRM = SRM (Homo sapiens, UniProt Q9H3Y6)
Protocol: as §1, §2, §3, §4

HCK = HCK (Homo sapiens, UniProt P08631)
HCK, sequence (P08631 whole entry): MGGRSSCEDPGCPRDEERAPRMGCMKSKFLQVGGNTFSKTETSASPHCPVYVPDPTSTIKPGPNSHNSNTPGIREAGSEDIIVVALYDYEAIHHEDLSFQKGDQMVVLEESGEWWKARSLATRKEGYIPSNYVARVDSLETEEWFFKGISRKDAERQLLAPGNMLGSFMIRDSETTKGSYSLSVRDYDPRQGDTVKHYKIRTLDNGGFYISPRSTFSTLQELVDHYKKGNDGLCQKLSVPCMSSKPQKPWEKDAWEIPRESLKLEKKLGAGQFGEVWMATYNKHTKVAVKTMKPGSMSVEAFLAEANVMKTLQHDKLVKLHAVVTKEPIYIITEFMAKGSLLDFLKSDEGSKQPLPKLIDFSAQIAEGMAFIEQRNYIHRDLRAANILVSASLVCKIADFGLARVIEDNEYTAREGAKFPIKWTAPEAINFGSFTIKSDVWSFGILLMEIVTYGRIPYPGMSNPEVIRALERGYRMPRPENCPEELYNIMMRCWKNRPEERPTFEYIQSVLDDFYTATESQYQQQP
Protocol: as §1, §2, §3

DYRK1A = DYRK1A (Homo sapiens, UniProt Q13627)
Protocol: as §1, §2, §3, §4

PKACβ = PKACβ (Homo sapiens, UniProt P22694)
Protocol: as §1, §2, §3, §4

EPHB2 = EPHB2 (Homo sapiens, UniProt P29323)
Protocol: as §1, §2, §3, §4

SIK = SIK (Homo sapiens, UniProt P57059)
Protocol: as §1, §2, §3, §4

LYNa = LYNa (Homo sapiens, UniProt P07948)
LYNa, sequence (P07948 whole entry): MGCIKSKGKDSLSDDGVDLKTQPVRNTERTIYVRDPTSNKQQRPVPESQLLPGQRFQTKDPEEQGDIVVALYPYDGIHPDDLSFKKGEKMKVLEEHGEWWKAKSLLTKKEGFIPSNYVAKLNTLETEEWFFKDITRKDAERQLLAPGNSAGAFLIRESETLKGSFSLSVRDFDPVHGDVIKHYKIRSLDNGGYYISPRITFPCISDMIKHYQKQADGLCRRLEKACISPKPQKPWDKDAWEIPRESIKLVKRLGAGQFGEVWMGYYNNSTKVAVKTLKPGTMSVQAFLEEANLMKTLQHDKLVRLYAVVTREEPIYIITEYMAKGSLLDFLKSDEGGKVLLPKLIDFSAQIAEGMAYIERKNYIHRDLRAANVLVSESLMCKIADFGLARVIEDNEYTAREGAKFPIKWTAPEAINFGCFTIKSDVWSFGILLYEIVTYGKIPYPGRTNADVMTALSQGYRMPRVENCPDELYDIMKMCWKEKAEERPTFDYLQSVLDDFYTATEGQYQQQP
Protocol: as §1, §2, §3

NuaK2 = NuaK2 (Homo sapiens, UniProt Q9H093)
NuaK2, sequence (Q9H093 whole entry): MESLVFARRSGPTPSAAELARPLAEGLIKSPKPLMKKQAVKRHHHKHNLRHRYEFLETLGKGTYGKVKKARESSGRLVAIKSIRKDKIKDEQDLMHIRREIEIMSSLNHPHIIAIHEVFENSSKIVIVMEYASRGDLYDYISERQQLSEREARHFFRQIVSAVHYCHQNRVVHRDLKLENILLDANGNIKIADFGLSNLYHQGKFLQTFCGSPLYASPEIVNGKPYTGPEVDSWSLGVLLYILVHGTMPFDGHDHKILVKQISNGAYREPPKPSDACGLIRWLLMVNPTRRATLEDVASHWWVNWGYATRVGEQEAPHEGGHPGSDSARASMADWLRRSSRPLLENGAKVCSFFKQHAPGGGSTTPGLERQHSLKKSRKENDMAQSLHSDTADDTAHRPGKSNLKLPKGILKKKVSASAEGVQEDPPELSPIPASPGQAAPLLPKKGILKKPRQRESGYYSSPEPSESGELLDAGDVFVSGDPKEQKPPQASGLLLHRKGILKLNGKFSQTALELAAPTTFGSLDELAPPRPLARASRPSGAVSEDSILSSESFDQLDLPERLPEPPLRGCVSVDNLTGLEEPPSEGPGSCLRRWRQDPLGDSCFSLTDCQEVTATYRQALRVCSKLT
Protocol: as §1, §2, §3, §4

PASK = PASK (Homo sapiens, UniProt Q96RG2)
Protocol: as §1, §2, §3, §4

CC[C@@]1(c2ccccc2)C2=C(CC(C)(C)CC2=O)Nc2n[nH]cc21 [BRD0705]
% Inhibition at 10 μM (CHK1): 2.9% | % Inhibition at 10 μM (Erk5): −7.9% | % Inhibition at 10 μM (MAPKAPK3): −8.3% | % Inhibition at 10 μM (IKKε): −4.5% | % Inhibition at 10 μM (MAP2K7_Cascade): −0.6% | % Inhibition at 10 μM (LCK): 5.0% | % Inhibition at 10 μM (ALK(L1196M)): 0.4% | % Inhibition at 10 μM (PAK5): 9.3% | % Inhibition at 10 μM (p38α): −8.5% | % Inhibition at 10 μM (NEK1): −9.6% | % Inhibition at 10 μM (EGFR(L858R)): −4.0% | % Inhibition at 10 μM (PKCη): −4.0% | % Inhibition at 10 μM (FGFR3): −2.8% | % Inhibition at 10 μM (EPHA4): 4.0% | % Inhibition at 10 μM (CK2α2/β): −7.0% | % Inhibition at 10 μM (TRKC): 6.4% | % Inhibition at 10 μM (JNK1): −3.9% | % Inhibition at 10 μM (FES): 0.6% | % Inhibition at 10 μM (ACK): −4.5% | % Inhibition at 10 μM (CaMK2α): −8.6% | % Inhibition at 10 μM (TAOK2): −5.8% | % Inhibition at 10 μM (CK2α1/β): −6.0% | % Inhibition at 10 μM (DCAMKL2): −0.5% | % Inhibition at 10 μM (RSK1): −6.4% | % Inhibition at 10 μM (BRSK1): −1.6% | % Inhibition at 10 μM (CaMK1δ): −3.0% | % Inhibition at 10 μM (MAPKAPK2): −22.4% | % Inhibition at 10 μM (PIM3): 1.2% | % Inhibition at 10 μM (KIT(V560G)): −1.7% | % Inhibition at 10 μM (p70S6K): −7.8% | % Inhibition at 10 μM (HIPK2): −0.5% | % Inhibition at 10 μM (SRM): −5.5% | % Inhibition at 10 μM (HCK): 1.1% | % Inhibition at 10 μM (DYRK1A): −3.1% | % Inhibition at 10 μM (PKACβ): −7.7% | % Inhibition at 10 μM (EPHB2): 6.5% | % Inhibition at 10 μM (SIK): −4.8% | % Inhibition at 10 μM (LYNa): −0.4% | % Inhibition at 10 μM (NuaK2): −1.7% | % Inhibition at 10 μM (PASK): 0.2%

CC(C)(C)Cc1[nH]nc2c1[C@](C)(c1ccccc1)C1=C(CC(C)(C)CC1=O)N2 [BRD3731]
% Inhibition 10 μM (CHK1; 10 μM): −16.4% | % Inhibition 10 μM (Erk5; 10 μM): 4.5% | % Inhibition 10 μM (MAPKAPK3; 10 μM): 6.0% | % Inhibition 10 μM (IKKε; 10 μM): −1.4% | % Inhibition 10 μM (MAP2K7_Cascade; 10 μM): 3.0% | % Inhibition 10 μM (LCK; 10 μM): 9.2% | % Inhibition 10 μM (ALK(L1196M); 10 μM): 3.6% | % Inhibition 10 μM (PAK5; 10 μM): 6.5% | % Inhibition 10 μM (p38α; 10 μM): 0.9% | % Inhibition 10 μM (NEK1; 10 μM): −0.1% | % Inhibition 10 μM (EGFR(L858R); 10 μM): −1.2% | % Inhibition 10 μM (PKCη; 10 μM): −5.8% | % Inhibition 10 μM (FGFR3; 10 μM): −0.7% | % Inhibition 10 μM (EPHA4; 10 μM): −2.7% | % Inhibition 10 μM (CK2α2/β; 10 μM): −2.3% | % Inhibition 10 μM (TRKC; 10 μM): 12.1% | % Inhibition 10 μM (JNK1; 10 μM): −6.0% | % Inhibition 10 μM (FES; 10 μM): 0.4% | % Inhibition 10 μM (ACK; 10 μM): −1.3% | % Inhibition 10 μM (CaMK2α; 10 μM): −4.3% | % Inhibition 10 μM (TAOK2; 10 μM): 2.2% | % Inhibition 10 μM (CK2α1/β; 10 μM): −2.1% | % Inhibition 10 μM (DCAMKL2; 10 μM): −1.3% | % Inhibition 10 μM (RSK1; 10 μM): 23.4% | % Inhibition 10 μM (BRSK1; 10 μM): 7.9% | % Inhibition 10 μM (CaMK1δ; 10 μM): 16.7% | % Inhibition 10 μM (MAPKAPK2; 10 μM): 22.4% | % Inhibition 10 μM (PIM3; 10 μM): 13.1% | % Inhibition 10 μM (KIT(V560G); 10 μM): 1.4% | % Inhibition 10 μM (p70S6K; 10 μM): 12.5% | % Inhibition 10 μM (HIPK2; 10 μM): 3.2% | % Inhibition 10 μM (SRM; 10 μM): 0.9% | % Inhibition 10 μM (HCK; 10 μM): 6.6% | % Inhibition 10 μM (DYRK1A; 10 μM): 3.3% | % Inhibition 10 μM (PKACβ; 10 μM): 9.3% | % Inhibition 10 μM (EPHB2; 10 μM): 6.4% | % Inhibition 10 μM (SIK; 10 μM): 8.2% | % Inhibition 10 μM (LYNa; 10 μM): −0.3% | % Inhibition 10 μM (NuaK2; 10 μM): −2.8% | % Inhibition 10 μM (PASK; 10 μM): 10.7%
